Data on 1 molecule can be found in US10479781B2, “Peptidyl nitril compounds as dipeptidyl peptidase I inhibitors” (Prozymex A/S, priority 2015, dated 2019).

Molecules are shown by their SMILES.

Data set [1] is described as follows: Test for metabolic stability (human liver microsomes). The format is in vitro ADME. As to conditions: pH 7.4; human liver microsomes 1.0 mg/mL, 1 mM NADPH, test compound 5 μM, 37° C. How it is done: Test for Metabolic Stability
The test for metabolic stability was performed by Absorption System, Exton, Pa. 19341, USA.
The test compound (DPPI inhibitor) was dissolved in 100% DMSO at a concentration of 10 mM. The reaction mixture, consisted of Mouse or Human Liver Microsomes (1.0 mg/mL), 1 mM NADPH, 100 mM Potassium Phosphate, pH 7.4, 10 mM Magnesium Chloride and test compound at a concentration of 5 μM.
An aliquot of the reaction mixture (without cofactors) was incubated in a shaking water bath at 37° C. for 3 minutes. Another aliquot of the reaction mixture was prepared as the negative control. The test compound was added into both the reaction mixture and the negative control at a final concentration of 5 μM.
The reaction was initiated by the addition of NADPH to 1 mM (not into the negative controls) and then incubated in a shaking water bath at 37° C. Aliquots (100 μL) were withdrawn at 0, 10, 20, 30, and 60 minutes or at 0, 15, 30 and 60 minutes and combined with 900 μL of ice-cold 50/50 acetonitrile/dH2O to terminate the reaction. A control (testosterone) was run simultaneously with the test compound in a separate reaction. […] The elimination half-lives associated with the disappearance of the test and control compounds were determined to compare their relative metabolic stability.
In general terms: Microsomes from liver hold many membrane-bound enzymes, among them those of drug oxidation.

The target of data set [2] is T1, DPPI (Homo sapiens, UniProt P53634). The data set is described as follows: Cell based DPPI inhibition assay 2. The arrangement: endogenous in cells; host or cells: U937 cells. As to conditions: neutrophil elastase activity in U937 cells grown 48 hours with inhibitor. How it is done:
Cell Based DPPI Inhibition Assay 2
Using the cell based assay described below, the biological activity of the compounds of the invention or other DPPI inhibitors may be determined.
Neutrophil elastase enzymatic activities in U937 cells grown in the presence of DPPI inhibitors were measured by methods modified from Méthot N; Rubin J; Guay D; Beaulieu C; Ethier D; Reddy T J; Riendeau D and Percival M D (2007) J Biol Chem, 282, 20836-20846.
U937 cells were propagated in culture media (RPMI 1640, supplemented with 10% FBS, 10 mM Hepes, 1 mM sodium pyrovate, 100 units/ml of each of penicillin and streptomycin). Cells were seeded in 12-well plates at ≈0.2×10^6 cells/ml in volumes of 1.5 ml per well in the presence of no or increasing concentrations of DPPI inhibitor. 12 points in duplicate in the range of 0.01 nM to 10 μM inhibitor were tested. […]
The activity of neutrophil elastase was determined by measuring the enzymatic release of chromogenic p-nitroaniline from the substrate MetOSuc-Ala-Ala-Pro-Val-pNA, which leads to an increase in absorbance at 405 nm. Assays were carried out in 96-well plates in a final volume of 200 μL at 37° C., and absorbance was measured 8 times during 21 minutes using a plate reader. IC50 was determined using a 4-parameter logistic equation in a non-linear curve fitting routine.

The target in data set [3] is T1, DPPI. The data set is described as follows: Human DPPI inhibition assay 2. The format is biochemical. The arrangement: purchased UNIZYME Laboratories A/S. The note with it: substrate Gly-Phe-paranitroanilide 750 μM, pH 4.5, 37° C. How it is done: Human DPPI Inhibition Assay 2
Using this assay, the IC50 value of the compound of the invention may be determined using Gly-Phe-paranitroanilide as a DPPI specific substrate.
Assay buffer: 20 mM citric acid (2.1 g citric acid), 150 mM NaCl (4.4 g NaCl) and 2 mM EDTA (370 mg EDTA) was dissolved in 500 mL H2O, and pH was adjusted to 4.5 with HCl.
Substrate: Gly-Phe-paranitroanilide (Sigma Aldrich; Cat. No G0142) was used as the substrate for determination of IC50 values. Km was 2.2 mM. The substrate was solubilized in dimethylformamid to give a 0.2-0.5 M stock solution, which was then further diluted with stirring in assay buffer to a final concentration of 1 mM.
DPPI: Human DPPI (obtained from UNIZYME Laboratories A/S, DK-2970 Hørsholm, Denmark) was stored at −20° C. in a buffer containing 2.5 mM Na-phosphate, 150 mM NaCl, 2 mM cysteamine, 50% glycerol, pH 7.0 at a concentration of 2.2 mg/mL (≈12 μM). This stock solution was diluted 800-3200 times in assay buffer to a concentration of about 4-15 nM.
Assay conditions: The assay was performed in 96-well plates. […] The absorption was measured at 405 nm at 37° C. for every 90 seconds for 12 minutes or every 20 seconds for 4 minutes. […] IC50 was determined using a 4-parameter logistic equation in a non-linear curve fitting routine.

T1 sequence (P53634 231-394 limits assumed): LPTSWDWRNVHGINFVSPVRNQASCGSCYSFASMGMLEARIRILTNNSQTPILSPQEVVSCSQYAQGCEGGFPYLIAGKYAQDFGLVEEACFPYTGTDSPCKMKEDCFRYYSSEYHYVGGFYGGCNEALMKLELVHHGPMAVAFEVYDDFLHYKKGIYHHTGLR
T1 sequence (P53634 25-134 limits assumed): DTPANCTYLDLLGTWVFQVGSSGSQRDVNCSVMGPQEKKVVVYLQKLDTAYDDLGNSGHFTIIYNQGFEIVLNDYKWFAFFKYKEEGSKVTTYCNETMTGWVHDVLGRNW
T1 sequence (P53634 395-463 limits assumed): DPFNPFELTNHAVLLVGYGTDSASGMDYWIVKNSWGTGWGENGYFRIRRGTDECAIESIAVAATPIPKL

The term half-life denotes the time in which the quantity being followed falls by half. A higher half-life goes with slow decline. For orientation: IC50 means the concentration that inhibits the measured activity by half. Low values mean inhibition by little substance, high ones a need for much substance. In data set [1], `CN1CCN(Cc2ccc(-c3ccc(C[C@@H](C#N)NC(=O)C4(N)CCOCC4)c(F)c3)cc2)CC1` [PZ1101, (S)-4-amino-N-(1-cyano-2-(3-fluoro-4′-((4-methylpiperazin-1-yl)methyl)-[1,1′-biphenyl]-4-yl)ethyl)tetrahydro-2H-pyran-4-carboxamide] gave a half-life at 5 μM greater than 2 h. Besides, the IC50 on DPPI [2] is roughly 2.5 nM; against DPPI [3], roughly 6 nM.
